# Measured values: EP3290412A1, “HIV-1 NUCLEOCAPSID INHIBITORS” (Università degli Studi di Siena, priority 2016, dated 2018)
# Experiments:
# [1] = target: T1, full length (1-55) HIV-1 NCp7 (Human immunodeficiency virus type 1 group M subtype B, UniProt P12493); test: Electromobility Shift Assay (EMSA), competition for ssDNA binding; details: NCp7 300 nM, M13mp18 ssDNA; positive = >25% inhibition at 100µM
# T1 construct: recombinant full length (1-55) HIV-1 NCp7 proteins; made in house
# Summary of the method: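 Recombinant NL4-3 NCp7 (300 nM in the pre-mix) was combined with compound in 20 mM Tris-HCl pH 7.4, 2 mM MgCl2, 100 mM NaCl, 1 mM DTT, then M13mp18 ssDNA was added for 25 min at 37 °C. Complexes were run on 1% agarose/0.5x TBE and stained with SybrGold. IC50 is the concentration at which bound ssDNA migrated 50% of the bound–unbound distance (triplicate).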
# [2] = test system: Peripheral blood mononuclear cells (PBMC); assay type: cell-based; details: human, 7 days
# Summary of the method: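 Cytotoxicity measured after 7 days of compound exposure by MTS conversion (OD 490 nm, 4 h). The cells were PHA-activated (5 µg/mL, 2 days) donor PBMC, cultured with 20 IU/mL IL-2 at 1x10^5 cells/well. TD50 is the dose killing 50% versus untreated control, read from the dose-mortality curve.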
SMILES,EMSA screening results [1],Proliferation assay PBMC TD50 [2] [nM]
"C[C@H](NC(=O)c1nc(-c2ccc(C(=O)OCc3ccccc3)cn2)nc(O)c1O)C1CCCCC1 [Compound 70, benzyl (S)-6-(4-((1-cyclohexylethyl)carbamoyl)-5,6-dihydroxypyrimidin-2-yl)nicotinate]","Positive (A compound showing >25% inhibition when tested at 100µM concentration is considered as ""positive"")",500
"Cc1cc(-c2nc(O)c(O)c(C(=O)N[C@H](C)C3CCCCC3)n2)nc2ccccc12 [Compound 73, (R)-N-(1-cyclohexylethyl)-5,6-dihydroxy-2-(4-methylquinolin-2-yl)pyrimidine-4-carboxamide]","Positive (A compound showing >25% inhibition when tested at 100µM concentration is considered as ""positive"")",5790
"Cc1ccnc(-c2nc(O)c(O)c(C(=O)NC3(C4CCCCC4)CC3)n2)c1 [Compound 84, N-(1-cyclohexylcyclopropyl)-5,6-dihydroxy-2-(4-methylpyridin-2-yl)pyrimidine-4-carboxamide]","Positive (A compound showing >25% inhibition when tested at 100µM concentration is considered as ""positive"")",3470
"C[C@H](NC(=O)c1nc(-c2cc3ccccc3cn2)nc(O)c1O)C1CCCCC1 [Compound 72, (S)-N-(1-cyclohexylethyl)-5,6-dihydroxy-2-(isoquinolin-3-yl)pyrimidine-4-carboxamide]","Positive (A compound showing >25% inhibition when tested at 100µM concentration is considered as ""positive"")",2270
"C[C@H](NC(=O)c1nc(-c2ccc3ccccc3n2)nc(O)c1O)C1CCCCC1 [Compound 75, (S)-N-(1-cyclohexylethyl)-5,6-dihydroxy-2-(quinolin-2-yl)pyrimidine-4-carboxamide]","Positive (A compound showing >25% inhibition when tested at 100µM concentration is considered as ""positive"")",6900
"CC(NC(=O)c1nc(-c2nccc3ccccc23)nc(O)c1O)C1CCC(F)(F)CC1 (stereo not shown) [Compound 90, N-(1-(4,4-difluorocyclohexyl)ethyl)-5,6-dihydroxy-2-(isoquinolin-1-yl)pyrimidine-4-carboxamide]","Positive (A compound showing >25% inhibition when tested at 100µM concentration is considered as ""positive"")",4270
"C[C@H](NC(=O)c1nc(-c2cc(C(=O)OCc3ccccc3)ccn2)nc(O)c1O)C1CCCCC1 [Compound 71, benzyl (S)-2-(4-((1-cyclohexylethyl)carbamoyl)-5,6-dihydroxypyrimidin-2-yl)isonicotinate]","Positive (A compound showing >25% inhibition when tested at 100µM concentration is considered as ""positive"")",1420
"C[C@@H](NC(=O)c1nc(-c2cc(C(=O)NCc3ccccc3)ccn2)nc(O)c1O)C1CCCCC1 [Compound 74, (R)-2-(4-(benzylcarbamoyl)pyridin-2-yl)-N-(1-cyclohexylethyl)-5,6-dihydroxypyrimidine-4-carboxamide]","Positive (A compound showing >25% inhibition when tested at 100µM concentration is considered as ""positive"")",1680
